Laboratory results taken from patent publication US12421249B2, “Inhibitors of APOL1 and methods of using same” (Vertex Pharmaceuticals Incorporated, priority 2020, dated 2025).
pIC50: −log10 of the molar value.

Molecular target: T1, APOL1 G1 (Homo sapiens, UniProt O14791, I384M/S342G)
T1 sequence (O14791 28-398 S342G/I384M): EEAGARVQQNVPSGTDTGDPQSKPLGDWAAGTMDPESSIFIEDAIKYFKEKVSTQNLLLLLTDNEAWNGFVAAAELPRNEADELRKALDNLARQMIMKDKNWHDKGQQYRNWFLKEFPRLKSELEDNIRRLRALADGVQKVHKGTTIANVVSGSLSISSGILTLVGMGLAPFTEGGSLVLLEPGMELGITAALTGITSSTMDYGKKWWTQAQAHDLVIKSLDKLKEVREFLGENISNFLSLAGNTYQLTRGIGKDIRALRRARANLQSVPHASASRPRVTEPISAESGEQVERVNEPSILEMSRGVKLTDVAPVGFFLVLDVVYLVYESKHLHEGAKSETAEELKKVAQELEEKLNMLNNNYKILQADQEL
Assay: Trypanosoma brucei brucei Lysis Assay Using APOL1 Recombinant Protein (AlamarBlue viability readout)
Assay type: cell-based
Details: Trypanosome Assay
Outline: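 Percent viability comes from AlamarBlue (resazurin→resorufin) fluorescence interpolated on a standard curve of known parasite numbers, with no-APOL1 wells as 100%. Parasites (Lister 427 bloodstream form, 120,000/well, serum-free assay medium) meet 0.05 μg/mL APOL1 (~EC90). Compounds span a 10-point series, 0.1% DMSO final.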

[2H]C1([2H])O[C@@]2(C[C@@H](c3cn(C)nn3)N[C@@H](C)C2)c2sc(Cl)cc2[C@]1([2H])O [Compound 385, (2S,4S,4′S,6S)-2′-chloro-4′,5′,5′-trideuterio-2-methyl-6-(1-methyltriazol-4-yl)spiro[piperidine-4,7′-thieno[2,3-c]pyran]-4′-ol] gave a pIC50 (IP50 = IC50 for cell proliferation, read-out: Trypanosome Assay IP50) greater than 7.30 and an Emax (read-out: Trypanosome Assay Max Activity (%)) of 104%.
